According to patent US8551999B2, “Heterocyclic compound and pharmaceutical composition thereof” (Otsuka Pharmaceutical Co., Ltd., priority 2007, dated 2013):
Structures can show the parent of a compound that is named as a salt.

How the values were obtained:
[1] = tested on: human pancreatic cancer cells (HPAC); assay: Antiproliferative effect on cancer cells (in vitro), sulforhodamine B method, HPAC; format: cell-based; details: 5 days incubation with test compound
Protocol: (§1) Growth inhibition of human hepatic cancer cells (HuH-7) was determined by the sulforhodamine B method based on the method of Skehan P. et al. (J Natl Cancer Inst. 1990 Jul. 4; 82(13): 1107-12). In the study, HuH-7 cells were seeded on DMEM medium containing 10% fetal bovine serum in a 96-well microplate. After 24-hour incubation at 37° C. in the presence of 5% carbon dioxide, the test compound was added and the cells were incubated for another 5 days. After incubation, a trichloroacetic acid solution was added to yield the final concentration of 10% and the cells were left to stand at 4° C. for 1 hour to fix. Then, the cells were washed with water to remove the medium and trichloroacetic acid and dried in the air. The dried cells were stored at 4° C. until they were stained with sulforhodamine B. To each well, 1% acetic acid solution containing 0.4% sulforhodamine B was added and left to stand for 20 to 30 minutes at room temperature. After discarding the supernatant, each well was washed with 1% acetic acid solution, and 10 mM Tris ([…]) solution was added while stirring to elute the dye taken into the cells. Then, the optical density was determined at the measurement wavelength of 492 nm and the reference wavelength of 690 nm, and the difference was calculated. The cell growth activity in each well was defined as the value determined by subtracting the OD in the control well not containing cells (the difference in absorbance between 492 nm and 690 nm) from that in the test well.
(§2) The 50% inhibitory concentration (IC50 (nM)) of the test compound was determined by comparing the cell growth activity in the well containing the test compound with that of the control not containing the test compound.
The growth inhibition on human pancreatic cancer cells (HPAC) was also determined by the above method using HPAC instead of HuH-7 and RPMI 1640 medium containing 10% fetal bovine serum instead of the DMEM medium containing 10% fetal bovine serum.

[2] = tested on: human chronic myelocytic leukemia cells (KU812); assay: Antiproliferative effect on cancer cells (in vitro), WST-8 assay, KU812; format: cell-based; details: 5 days incubation with test compound
Protocol: The growth inhibition on human chronic myelocytic leukemia cells (KU812) was determined by a WST-8 assay according to the method of Singh A K, et al. (Cancer Lett. 1996 Oct. 1; 107(1): 109-15.). In this method, KU812 cells were seeded in RPMI 1640 medium containing 10% fetal bovine serum in a 96-well microplate and incubated at 37° C. for 24 hours in the presence of 5% carbon dioxide. Then, the test compound was added and the cells were incubated for another 5 days. After incubation, 15 μL of 5 mM WST-8 (2-(2-methoxy-4-nitrophenyl)-3-(4-nitrophenyl)-5-(2,4-disulfenyl)-2H-tetrazolium, monosodium salt) was added and the cells were incubated for 2 hours. After the 2-hour incubation, 15 μL of 1% SDS (sodium dodecyl sulfate) was added and the optical density was determined at the measurement wavelength of 450 nm and the reference wavelength of 630 nm, and the difference was calculated. The cell growth activity in each well was defined as the value determined by subtracting the OD in the control well not containing cells (the difference in absorbance between 492 nm and 690 nm) from that in the test well.
as §2

[3] = tested on: human hepatic cancer cells (HuH-7); assay: Antiproliferative effect on cancer cells (in vitro), sulforhodamine B method, HuH-7; format: cell-based; details: HuH-7 cells, 5 days incubation with test compound
Protocol: as §1, §2

STAT3 = assay: Inhibitory effect on IL-6-induced STAT3 phosphorylation in human myeloma cells (in vitro); format: cell-based; details: U266B1 human myeloma cells, IL-6 1 ng/mL, pSTAT3 (Y705) by flow cytometry
Protocol: The inhibitory effect of the test compound on phosphorylation of STAT3 (signal transducer and activator of transcription-3) in human myeloma cells ([…]) induced by interleukin-6 (IL-6) was examined using the modified method of Tochizawa S. et al. (J Immunol Methods. 2006 Jun. 30; 313(1-2): 29-37). In the study, U266B1 cells were seeded in an RPMI 1640 medium containing 10% fetal bovine serum (FBS) in a 12-well plate and incubated at 37° C. for 2 hours in the presence of carbon dioxide. After incubation, IL-6 was added to yield the concentration of 1 ng/mL and the cells were incubated at 37° C. for 15 minutes in the presence of 5% carbon dioxide. After fixation of the cells by the addition of a buffer containing formaldehyde (Lyse/Fix Buffer, BD Biosciences) at room temperature for 10 minutes, the suspension was centrifuged to remove the supernatant and the cells were treated with ice-cold methanol for 10 minutes to improve the permeability of the cell membrane. The cells were centrifuged to remove methanol and washed twice with Dulbecco's phosphate buffered saline (D-PBS) containing 2% fetal bovine serum (FBS). A fluorescence-labeled anti-phosphorylated STAT3 (pSTAT3) antibody (Alexa Fluor 488-labeled anti-pSTAT3 (Y705) antibody, BD Biosciences) was added for staining in an ice bath for 30 minutes.
The cells were washed once with 2% FBS-containing D-PBS and suspended in 2% FBS-containing D-PBS, and the fluorescence intensity was determined using a flow cytometer (FACS Sort, BD Biosciences). The ratio of fluorescence intensity in the test group to the control group (T/C) was determined from the difference in the geometric mean of pSTAT3 fluorescence intensity between the test compound group of each concentration and the non-stimulated control group according to the following equation by defining the difference in the geometric mean of pSTAT3 fluorescence intensity between the IL-6 induced control and the non-stimulated control as 100%. T/C(%)=([…] of pSTAT3 fluorescence intensity in the cells treated with the test compound—geometric mean of pSTAT3 fluorescence intensity in non-stimulated control)/(geometric mean of fluorescence intensity of IL-6-induced pSTAT3 in the control−geometric mean of pSTAT3 fluorescence intensity in non-stimulated control)×100.
The concentration of the test compound inhibiting phosphorylation of STATS at 50% (IC50; concentration of the test compound corresponding to 50% T/C(%)) was determined using T/C(%) values at the respective concentrations and defined as the index for the inhibitory activity.

For `CCc1ccc(CN2CCN(C(=O)c3cc4cc(Oc5ccc(N(C)C(=O)c6ccc(C(F)(F)F)cc6)cn5)ccc4n3C)CC2)cc1.O=C(O)C(=O)O` [Example 391, N-(6-{2-[4-(4-Ethylbenzyl)piperazine-1-carbonyl]-1-methyl-1H-indol-5-yloxy}pyridin-3-yl)-N-methyl-4-trifluoromethylbenzamide oxalate], the IC50 ([1]; Homo sapiens, 120 h) was < 70 nM, the melting point was 167 to 169 °C and the IC50 ([2]; Homo sapiens, 120 h) was < 2 nM. For the same compound, the IC50 ([3]; Homo sapiens, 120 h) was < 10 nM.
For `CC(C)Oc1ccc(CN2CCN(C(=O)c3cc4ccc(Oc5ccc(N(C)S(=O)(=O)c6ccc(Cl)c(Cl)c6)cn5)cc4n3C)CC2)cc1` [Example 507, 3,4-Dichloro-N-(6-{2-[4-(4-isopropoxybenzyl)piperazine-1-carbonyl]-1-methyl-1H-indol-6-yloxy}pyridin-3-yl)-N-methyl-benzenesulfonamide], the melting point was 186.8 to 187 °C and the IC50 (STAT3) was < 10 nM.
With `CCOc1ccc(CN2CCN(C(=O)c3cc4cc(Oc5ccc(N(C)C(=O)c6ccc(C(F)(F)F)cc6)cn5)ccc4n3C)CC2)cc1.O=C(O)/C=C\C(=O)O` [Example 342, N-(6-{2-[4-(4-Ethoxybenzyl)piperazine-1-carbonyl]-1-methyl-1H-indol-5-yloxy}pyridin-3-yl)-N-methyl-4-trifluoromethylbenzamide maleate] the melting point was 131 to 135 °C and the IC50 (STAT3) was < 10 nM.
In the case of `CN(C(=O)c1ccc(C(F)(F)F)cc1)c1ccc(Oc2ccc3c(c2)cc(C(=O)N2CCN(Cc4ccc(OC(F)(F)C(F)F)cc4)CC2)n3C)nc1.O=C(O)/C=C\C(=O)O` [Example 403, N-Methyl-N-[6-(1-methyl-2-{4-[4-(1,1,2,2-tetrafluoroethoxy)-benzyl]piperazine-1-carbonyl}-1H-indol-5-yloxy)pyridin-3-yl]-4-trifluoromethylbenzamide maleate], the melting point is reported as 137 to 139 °C and the IC50 (STAT3) is reported as < 10 nM.
With `Br.CN(C(=O)c1ccc(C(F)(F)F)cc1)c1ccc(Oc2ccc3cc(C(=O)N4CCN(Cc5ccc(C#N)cc5)CC4)n(C)c3c2)nc1` [Example 321, N-(6-{2-[4-(4-Cyanobenzyl)piperazine-1-carbonyl]-1-methyl-1H-indol-6-yloxy}pyridin-3-yl)-N-methyl-4-trifluoromethylbenzamide hydrobromide] the melting point was 267 to 270 °C and the IC50 (STAT3) was < 10 nM.
For `Br.CCCOc1ccc(CN2CCN(C(=O)c3cc4ccc(Oc5ccc(N(C)C(=O)c6ccc(C(F)(F)F)cc6)cn5)cc4n3C)CC2)cc1` [Example 420, N-Methyl-N-(6-{1-methyl-2-[4-(4-propoxybenzyl)piperazine-1-carbonyl]-1H-indol-6-yloxy}pyridin-3-yl)-4-trifluoromethyl-benzamide hydrobromide], the melting point was 246 to 248 °C and the IC50 (STAT3) was < 10 nM.
In the case of `Br.CC(C)Oc1ccc(CN2CCN(C(=O)c3cc4ccc(Oc5ccc(N(C)C(=O)c6ccc(C(F)(F)F)cc6)cn5)cc4n3C)CC2)cc1` [Example 421, N-(6-{2-[4-(4-Isopropoxybenzyl)piperazine-1-carbonyl]-1-methyl-1H-indol-6-yloxy}pyridin-3-yl)-N-methyl-4-trifluoromethyl-benzamide hydrobromide], the melting point is reported as 251 to 253 °C and the IC50 (STAT3) is reported as < 10 nM.
For `COc1ccc(S(=O)(=O)N(C)c2ccc(Oc3ccc4cc(C(=O)N5CCN(Cc6ccc(OCC(F)(F)F)cc6)CC5)n(C)c4c3)nc2)cc1.Cl` [Example 73, 4-Methoxy-N-methyl-N-[6-(1-methyl-2-{4-[4-(2,2,2-trifluoro-ethoxy)benzyl]piperazine-1-carbonyl}-1H-indol-6-yloxy)pyridin-3-yl]benzenesulfonamide hydrochloride], the IC50 ([1]; Homo sapiens, 120 h) was < 70 nM, the melting point was 213.4 to 214.1 °C and the IC50 ([2]; Homo sapiens, 120 h) was < 2 nM. The IC50 ([3]; Homo sapiens, 120 h) was < 10 nM.
In the case of `CCOc1ccc(CN2CCN(C(=O)c3cc4cc(Oc5ccc(N(C)C(=O)c6ccc(C(F)(F)F)cc6)c(C)n5)ccc4n3C)CC2)cc1` [Example 368, N-(6-{2-[4-(4-Ethoxybenzyl)piperazine-1-carbonyl]-1-methyl-1H-indol-5-yloxy}-2-methylpyridin-3-yl)-h=methyl-4-trifluoromethyl-benzamide hydrobromide], the IC50 [1] is reported as < 70 nM, the IC50 [2] is reported as < 2 nM and the IC50 [3] is reported as < 10 nM.
For `CCOc1ccc(CN2CCN(C(=O)c3cc4cc(Oc5ccc(N(C)C(=O)c6ccc(C(F)(F)F)cc6)cn5)ccc4n3C)CC2)nc1.O=C(O)/C=C\C(=O)O` [Example 417, N-(6-{2-[4-(5-Ethoxypyridin-2-ylmethyl)piperazine-1-carbonyl]-1-methyl-1H-indol-5-yloxy}pyridin-3-yl)-N-methyl-4-trifluoromethyl-benzamide maleate], the melting point was 129 to 130 °C and the IC50 (STAT3) was < 10 nM.
With `Cc1ccc(S(=O)(=O)N(C)c2ccc(Oc3ccc4cc(C(=O)N5CCN(Cc6ccc7c(c6)OC(F)(F)O7)CC5)n(C)c4c3)nc2)cc1.Cl` [Example 526, N-(6-{2-[4-(2,2-Difluorobenzo[1,3]dioxol-5-ylmethyl)piperazine-1-carbonyl]-1-methyl-1H-indol-6-yloxy}pyridin-3-yl)-4,N-dimethyl-benzenesulfonamide hydrochloride] the melting point was 240 to 243 °C and the IC50 (STAT3) was < 10 nM.
In the case of `Cc1ccc(S(=O)(=O)N(C)c2ccc(Oc3ccc4cc(C(=O)N5CCN(Cc6ccc(OC(C)C)cc6)CC5)n(C)c4c3)nc2)cc1` [Example 525, N-(6-{2-[4-(4-Isopropoxybenzyl)piperazine-1-carbonyl]-1-methyl-1H-indol-6-yloxy}pyridin-3-yl)-4,N-dimethylbenzenesulfonamide], the melting point is reported as 140.9 to 145.8 °C and the IC50 (STAT3) is reported as < 10 nM.
In the case of `Cn1c(C(=O)N2CCN(Cc3ccc(-c4csnn4)cc3)CC2)cc2ccc(Oc3ccc(NC(=O)c4ccc(C(F)(F)F)cc4)cn3)cc21` [Example 571, N-(6-{1-Methyl-2-[4-(4-[1,2,3]thiadiazol-4-ylbenzyl)piperazine-1-carbonyl]-1H-indol-6-yloxy}pyridin-3-yl)-4-trifluoromethyl-benzamide], the IC50 ([1]; Homo sapiens, 120 h) is reported as < 70 nM, the melting point is reported as 220 to 220.8 °C and the IC50 ([2]; Homo sapiens, 120 h) is reported as < 2 nM. For the same compound, the IC50 ([3]; Homo sapiens, 120 h) was < 10 nM.
